From patent US20180008592A1, “TREATMENT OF UREMIC PRURITUS” (TREVI THERAPEUTICS, INC., priority 2016, published 2018)

Key:
[1] = test system: renally impaired patients on hemodialysis with moderate or severe uremic pruritus; test: Randomized double-blind placebo-controlled trial: Worst Itching Intensity Numerical Rating Scale (NRS); type: in vivo, human; details: for Change from Baseline to the Evaluation Period NRS (mean SD): weeks 7 and 8, scale 0-10; for patients with ≧15% change from baseline to the Evaluation Period in the NRS: p=NS; for NRS, Change from Baseline to the Evaluation Period, mean (SD): severe pruritus subgroup (Baseline NRS ≧ 7), post-hoc
Experimental: This clinical study was a parallel, double-blind, placebo-controlled trial in which renally impaired patients on hemodialysis with moderate or severe uremic pruritus were randomized in a 1:1:1 ratio to nalbuphine ER tablets to a target dose of 120 mg BID or 60 mg BID, or matching placebo tablets BID. Medications taken for treatment of pruritus (“antipruritic medications”) were not prohibited, but their use was recorded throughout the study. Use of skin emollients was also not restricted. A placebo comparator was chosen because there are no approved treatments for uremic pruritus in the United States or Europe or an established standard of care that could serve as an active control.
The primary objectives were to evaluate the effects on itching intensity using a Worst Itching Intensity Numerical Rating Scale (NRS, 0 [no itching]-10 [worst possible itching]) (FIG. 7) as well as safety and tolerability. The study was conducted at 46 United States investigative sites and 6 investigative sites in Romania and Poland. The Sponsor oversaw the conduct of the trial and an independent unblinded Data Safety Monitoring Board reviewed safety data approximately once a month during the conduct of the trial.
To be eligible, patients had to have been on hemodialysis for 3 months, have a Patient Assessed Disease Severity (PADS) category of “B” or “C”, and a mean of 6 Worst Itching Numerical Rating Scale Scores during the week prior to randomization ≧4.5 on an 11-point scale (0, “no itching” to 10, “worst possible itching”) with at least 2 scores ≧5.0.
The primary endpoint was the change from Baseline to the Evaluation Period (Study weeks 7 and 8) in the modified intent-to-treat population. Quality of life-related secondary endpoints included change from Day 1 to the Evaluation Period in itching-related quality of life (using the Skindex-10 (FIG. 8)) and itching-related sleep disruption (using the Itch Medical Outcomes Study [Itch MOS] (FIG. 9), SLP-9). The Hospital Anxiety and Depression Score (HADS) used as a general measure of anxiety and depression. All patient-reported outcomes measures were selected based on their prior validation in uremic pruritus patients specifically or in the dialysis population more generally.
Patients were analyzed by group to which they were randomized.
The primary and quality of life secondary endpoint analyses used a mixed model repeated measures ANCOVA with the main effects of treatment and site and baseline worst itch NRS score as the covariate. The model included time (i.e. Visit) as a factor variable and treatment*time (with placebo as the reference category) with an unstructured covariance structure for repeated measures. Data from all post-baseline visits were used to fit the model. For the primary endpoint, the baseline value was defined as the mean of worst itch daytime and nighttime NRS scores used for satisfying the protocol inclusion criterion #5 (mean worst itching NRS≧4.5 based on a total of 3 daytime and 3 nighttime measurements from 3 dialysis visits). For the secondary endpoints, the baseline value was based on a measurement taken on Study Day 1, prior to randomization. A pre-specified step-down procedure was used. The first comparison was of nalbuphine 120 mg BID dose vs. placebo. If the first comparison was significant at the p<0.05 level, then the comparison between the nalbuphine 60 mg BID dose vs. placebo would be conducted. Patients with a 15% or greater response in worst itch NRS were analyzed using a Cochran-Mantel-Haenszel (CMH) test. Analysis of the Itch MOS utilized the SLP-9 scoring algorithm.
In the first 2 weeks of treatment, patients were blindly force-titrated to their assigned target dose, with the patients in the active arms reaching a dose of 60 mg BID (NAL 60) after the first week and, for those in the high dose group, to 120 mg BID (NAL 120) after the second week. Study drug was administered in blister cards containing the labeled morning and evening doses for each day of the week. […]

[2] = test system: hemodialysis patients with uremic pruritus who completed the Example 2 study; test: Phase 2/3 Open Label Extension Study (up to 24 weeks); type: in vivo, human
Excerpt: This clinical study was a Phase 2/3 Open Label Extension Study of the randomized, double-blind, 3-parallel arm, placebo controlled dose ranging study described in Example 2. All those subjects who were randomized, and then completed Example 2 study, were eligible to participate in the Extension Study.
The primary endpoint was a description of the overall incidence and nature of Treatment-Emergent AEs (TEAES) with the secondary endpoint a description of the incidence and nature of TEAEs during Treatment Weeks 4-24. Exploratory efficacy endpoints related to collecting data on the PRO instruments (NRS, Skindex-10, Itch MOS Sleep, HADS, PADS), the same instruments evaluated in Example 2.
Of the 373 patients that were randomized to the study of Example 2, 184 subjects both completed the study of Example 2 and enrolled into Extension Study. 167 subjects who enrolled into Extension Study entered the Treatment Period of the study and were exposed to nalbuphine HCl ER tablet administration and are the basis of the study safety population analysis. 17 subjects who were enrolled in the Extension were never dosed, they were categorized as screen failures and they are not part of the analysis.
Patients in Extension Study were titrated over a dose range of 30 mg QD to 120 mg BID based on tolerability and efficacy. The selected dose range was based on Example 2 study whereby patients were titrated from a 30 mg QD dose either to 60 mg BID or a 120 mg BID dose. The highest dose proposed was 120 mg BID (240 mg daily dose), and was well below the highest recommended daily treatment of 160 mg IV (equivalent to 960 mg oral) for the current marketed product.
The study duration for each patient was up to 26 weeks, with up to 24 weeks on study drug. The Extension Study consisted of a Treatment Period (that was followed by a Washout Safety Follow-up Period) and an Observation Period. Patients either entered directly into a drug Treatment Period (NRS >2) or a no-drug Observation Period (NRS ≦2) based on their reported NRS scores on the first Visit (Visit 1a). For up to 12 Extended Screening weeks, patients in the no-drug Observation Period could have also transitioned into the drug Treatment Period if their NRS increased to NRS >2. All patients entering the Treatment Period, whether immediately upon study entry or following a period of time in the Observation Period, were titrated to a dose ranging between 30 mg up to 120 mg BID, the highest dose tested in Example 2.
The total study duration for any individual patient was up to 26 weeks. […] For patients who entered the Treatment Period from the Observation Period, the total amount of time spent in the combined two periods of the study could not exceed 24 weeks.

[3] = safety population, titrated 30 mg QD to 120 mg BID, up to 24 weeks, most pronounced with baseline NRS ≧7

`Cl.Oc1ccc2c3c1O[C@H]1[C@@H](O)CC[C@@]4(O)[C@@H](C2)N(CC2CCC2)CC[C@]314` [Nalbuphine, 17-(cyclobutylmethyl)-4,5α-epoxymorphinian-3,6α, 14-triol, hydrochloride] was tested, and the “difference vs. placebo in worst itching NRS (primary endpoint)” value ([1]; 60 mg BID) was “no significant difference”, the “Change from Baseline to the Evaluation Period NRS (mean SD)” value ([1]; 60 mg BID ER tablets, N = 128, baseline NRS 6.9 (1.4)) was −3.1 (2.4) and the “Difference in the Change from Baseline to the Evaluation Period (LSMEAN, SE) vs. placebo” value ([1]; 60 mg BID, 95% CI (−0.84, 0.37), p = 0.441) was −0.24 (0.31). For the same compound, the “patients with ≧15% change from baseline to the Evaluation Period in the NRS” value ([1]; 60 mg BID) was 80.5%, the “Change from Baseline to the Evaluation Period NRS (mean SD)” value ([1]; 120 mg BID ER tablets, N = 120, baseline NRS 6.9 (1.5), hydrochloride) was −3.5 (2.4) and the “development of tolerance to the effect on itch” value ([1]; 120 mg BID, 8-week treatment period) was “no apparent development of tolerance”. For the same compound, the “Difference in the Change from Baseline to the Evaluation Period (LSMEAN, SE) vs. placebo” value ([1]; 120 mg BID, 95% CI (−1.34, −0.13), p = 0.017) was −0.73 (0.31), the “reduction in itching intensity” value ([1]; 120 mg BID, moderate and severe uremic pruritus) was 49% and the “patients with ≧15% change from baseline to the Evaluation Period in the NRS” value ([1]; 120 mg BID) was 84.5%. For the same compound, the “NRS, Change from Baseline to the Evaluation Period, mean (SD)” value ([1]; 60 mg BID, N = 61, baseline 8.0 (0.9)) was −3.4 (2.6), the “NRS, Change from Baseline to the Evaluation Period, mean (SD)” value ([1]; 120 mg BID, N = 63, baseline 8.2 (0.8), p < 0.01) was −4.5 and the “improvement of itching intensity and Itch MOS compared with placebo” value ([1]; severe subgroup (Baseline NRS ≧7.0), 60 mg BID) was “Neither itching intensity nor Itch MOS improved significantly”. The “decrease of mean itching intensity” value ([1]; severe subgroup (Baseline NRS ≧7.0), 120 mg BID) was 55%, the “absolute reduction of mean itching intensity (NRS)” value ([1]; severe subgroup (Baseline NRS ≧7.0, n=179), 120 mg BID, baseline 8.2 (0.8), p=0.007 vs. placebo) was 4.5 (2.5) and the “Mean Skindex-10 by week” value [2, 3] was “decreased from baseline to all measured time points”. For the same compound, the “Mean worst itch NRS by week” value [2, 3] was “decreased from baseline to all measured time points”, the safety findings ([2]; treatment period up to 24 weeks) was “consistent with the known safety profile of nalbuphine” and the “tolerance to the anti-pruritic effects” value ([2]; up to 24 weeks) was “do not develop a tolerance”.
